The target of experiment [1] is T1, 5-Lipoxygenase (Rattus norvegicus, UniProt P12527).
T1 construct: endogenous in cells; host or cells: rat neutrophils (PMN)
T1 sequence (P12527 1-673): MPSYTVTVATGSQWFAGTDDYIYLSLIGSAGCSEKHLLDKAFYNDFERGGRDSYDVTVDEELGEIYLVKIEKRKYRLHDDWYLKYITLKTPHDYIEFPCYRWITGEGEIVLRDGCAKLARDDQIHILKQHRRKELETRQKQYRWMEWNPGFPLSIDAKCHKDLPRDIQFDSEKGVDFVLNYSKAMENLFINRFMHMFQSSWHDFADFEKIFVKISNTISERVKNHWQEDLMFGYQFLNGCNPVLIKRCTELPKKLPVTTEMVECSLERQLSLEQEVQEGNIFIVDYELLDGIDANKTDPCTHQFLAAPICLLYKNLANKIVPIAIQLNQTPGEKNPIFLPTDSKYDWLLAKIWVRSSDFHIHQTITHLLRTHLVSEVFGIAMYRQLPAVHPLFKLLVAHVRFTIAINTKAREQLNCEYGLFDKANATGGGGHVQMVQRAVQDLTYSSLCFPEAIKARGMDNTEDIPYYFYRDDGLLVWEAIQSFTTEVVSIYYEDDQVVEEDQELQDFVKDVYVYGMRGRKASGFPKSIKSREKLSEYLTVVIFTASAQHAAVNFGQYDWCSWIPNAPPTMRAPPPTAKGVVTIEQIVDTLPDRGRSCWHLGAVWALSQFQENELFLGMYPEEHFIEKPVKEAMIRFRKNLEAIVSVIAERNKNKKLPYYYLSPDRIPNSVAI
Description: Inhibition of 5-Lipoxygenase, rat PMN (Protocol 1). The class given is cell-based. Conditions: rat neutrophils, 3 minutes at 30° C., 5-HETE formation; for IC50: [14C]-arachidonic acid and Calcium Ionophore A23187, read-out: Lox, Rat PMN (I50); for Inhibition of 5-Lipoxygenase, Lox, Rat PMN (given as %): concentration not given. How it is done: Protocol 1 describes an assay to detect inhibitors of the lipoxygenase pathway. Such inhibitors are believed to be capable of modulating the biosynthesis of the leukotrienes, a property believed to be useful in treating asthma and inflammatory disease states. A suspension of rat neutrophils in buffer is incubated for 3 minutes at 30° C. with [^14 C]-arachidonic acid (AA) and Calcium Ionophore A23187. Citric acid (2M) is used to quench the reaction. […] The organic layer is washed with dilute acid and an aliquot is transferred to glass tubes and dried. […] The 5-HETE spots are visulaized with iodine, cut out and placed in scintillation vials for counting. After adjusting for the extraction efficiency, the amount (pmole) of [^14 C]-5-HETE in each of the tubes is quantitated. The net pmoles of 5-HETE are obtained by subtracting the pmoles of 5-HETE in the tubes containing buffer alone (blank) from the pmoles of 5-HETE in the tubes containing buffer and cells (control).

The target in experiment [2] is T2, Phospholipase A2 (PLA2) (Rattus norvegicus, UniProt P14423).
T2 construct: The PLA2 employed in this screen is obtained by aggregation of purified rat platelets; from tissue; host or cells: purified rat platelets, enzyme obtained by aggregation
T2 sequence (P14423 22-146): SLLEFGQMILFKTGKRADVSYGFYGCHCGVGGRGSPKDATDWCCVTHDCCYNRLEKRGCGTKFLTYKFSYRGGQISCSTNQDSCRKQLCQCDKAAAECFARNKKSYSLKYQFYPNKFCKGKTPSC
Description: In Vitro Assay for Inhibitors of Phospholipase A2 (PLA2), rat platelets (Protocol II). The class given is biochemical. From the text: An assay has been developed to test the ability of the invented compounds on the activity of the phospholipases. The following protocol describes a means for testing the inhibitory effect of these compounds on Phospholipase A2 (PLA2).
In Vitro Assay for Inhibitors of Phospholipase A2 Assayed at pH 7.0 (PLA2)
The PLA2 employed in this screen is obtained by aggregation of purified rat platelets. In the enzyme assay phosphatidylcholine having ^14 C-labeled palmitate residues at R1 and R2 is employed as substrate. PLA2 acts by cleaving the R2 fatty acid ester bond yielding free fatty acid and lysophosphatidylcholine as follows: [drawing 15]
Following completion of the reaction, the assay medium is acidified and extracted with hexane, which takes up unreacted substrate and free fatty acid product. The hexane extract is passed over a short silica column which retains 99% of the phosphatidylcholine. The ^14 C-labeled palmitic acid is not retained (90% recovery in eluate) and is collected directly in scintillation counting vials. The released palmitic acid is conveniently quantitated by liquid scintillation spectrometry.
The compounds were tested at 100 μM in a buffer containing 0.3 mM unlabeled phosphatidylcholine (PC), 20-30,000 cpm of ^14 C(CPC), […], 1 mM CaCl2 and 50 mM tris-HCl adjusted to pH 7.2 with 1N NaOH. […] The temperature of the buffer was maintained at a temperature of 37° C. The reaction was initiated by addition of the enzyme and it was terminated 30 minutes later by the addition of […] of 1N HCl.
Following acidification, the samples were extracted with 2 ml of 2-propanol and 2 ml of hexane, vortexed and allowed to stand until the phases separated. Free fatty acids (FFA) and some unreacted substrate were taken up in the isopropanol-saturated hexane. The hexane phase of the extraction mixture was transferred to a short silica gell column which retained reacted PC but not the FFA. The column effluent was collected directly in scintillation vials. The columns were washed once with an additional 2 ml of hexane. The radio labeled FFA were quantitated by liquid scintillation spectrometry.

Setting [3] is: rat platelets PLA2, phosphatidylcholine substrate, pH 7.2, 37° C., 30 minutes, read-out: PHOSPHOLIPASE A2 INHIBITION Activity (I50).

Molecules are shown by their SMILES. Where two headings read alike, the source gives them in different places.

As for `CC(=O)Nc1ccc(OC(=O)/C=C(C)/C=C/C=C(C)/C=C/C2=C(C)CCCC2(C)C)cc1` [Example 1, 4-Acetamidophenyl Retinoate], the IC50 in experiment [1] and in experiment [2] (setting [3]) was 56 µM each time. Take `CCOC(=O)/C=C(C)/C=C/C=C(C)/C=C/c1c(C)cc(OC)c(C)c1C` [Ro 10 - 9359, reference compound]: the “Inhibition of 5-Lipoxygenase, Lox, Rat PMN (given as %)” value in experiment [1] is 10 ± 17%. As a reminder, the inhibition is the drop in the measured response relative to a control, in per cent. A higher inhibition goes with a strong effect. As to `CC1=C(/C=C/C(C)=C/C=C/C(C)=C/C(=O)O)C(C)(C)CCC1` [all trans retinoic acid, reference compound], in experiment [1], the IC50 is 90 µM. In addition, the inhibition at 100 µM in experiment [2] (at 100 μM, rat platelets PLA2, pH 7.2, 37° C., 30 minutes) worked out at 32%. Turning to `CCNC(=O)/C=C(C)/C=C/C=C(C)/C=C/c1c(C)cc(OC)c(C)c1C` [Ro 11 - 1430, reference compound], the “Inhibition of 5-Lipoxygenase, Lox, Rat PMN (given as %)” value in experiment [1] is listed as -11 ± 19%.

As for `CC(=O)Nc1ccc(SC(=O)/C=C(C)/C=C/C=C(C)/C=C/C2=C(C)CCCC2(C)C)cc1` [Example 3, Retinoic Acid 4-Acetamidophenyl Thioester], the IC50 in experiment [1] was 2.3 µM; in experiment [2] (setting [3]) it was 34 µM.

In experiment [2], `CC(=O)Nc1ccc(OC(=O)/C=C/C=C(C)/C=C/C=C(C)/C=C/C2=C(C)CCCC2(C)C)cc1` [Example 4, 4-Acetamidophenyl 5,9-dimethyl-11-(2,6,6-trimethyl-1-cyclohexen-1-yl)-2,4,6,8,10-undecapentaenoate] showed an IC50 of 17 µM.

With `CC(=O)Nc1cccc(OC(=O)/C=C(C)/C=C/C=C(C)/C=C/C2=C(C)CCCC2(C)C)c1` [Example 2, 3-Acetamidophenyl Retinoate], the IC50 turned out to be 55 µM in experiment [1] and 48 µM in experiment [2] (setting [3]).
